This note sets out measurements from PMC6374102 (Science Advances, 2019).

Data set [1] deals with λ-carrageenan–induced inflammatory pain injected rats. Put plainly: Hargreaves thermal nociception test in λ-carrageenan-induced paw edema model. Format: in vivo. Conditions: LENK-SQ NPs 20 mg/kg i.v.; morphine 1 mg/kg; rat.
Data set [2] in a line: In vitro release of LENK from NPs / bioconjugate stability in serum. It counts as in vitro ADME. To be noted: diluted male SWISS mouse serum (30% in 5% dextrose), 37°C; RP-HPLC, UV 257 nm.

Turning to `CC(C)=CCC/C(C)=C/CC/C(C)=C/CC/C=C(\C)CC/C=C(\C)CCC(=O)OCOC(=O)C(CC(C)C)NC(=O)C(Cc1ccccc1)NC(=O)CNC(=O)CNC(=O)C(N)Cc1ccc(O)cc1` (centres unmarked) [LENK-SQ-Diox, Leu-enkephalin-squalene with dioxycarbonyl linker], the “AUC of PWL time course, comparison between treatments” value in data set [1] is “significantly higher AUC than morphine and LENK-SQ-Am NPs”. The “Time that the released LENK peptide still lasted in serum” value in data set [2] is on record as “over 10 hours”.
